Results on 3 molecules are retold here after EPA's ToxRefDB 2.

Some results are limits rather than exact numbers.

Series [1] relates to dog. To be noted: Sub-acute repeat dose toxicity, beagle, Oral, Gavage/Intubation, dose end: 10 day, group: systemic.
The subject of series [2] is dog. To be noted: Sub-acute repeat dose toxicity; beagle; Oral; Gavage/Intubation; dose end: 30 day; group: systemic; systemic / in life observation / clinical signs / emesis + systemic / clinical chemistry / [other] / [other] + systemic / clinical chemistry….
For series [3], the system named is rat. The settings on record: Sub-acute repeat dose toxicity; sprague dawley; Oral; Gavage/Intubation; dose end: 10 day; group: systemic; systemic / clinical chemistry / sorbitol dehydrogenase / sorbitol dehydrogenase.
Series [4] deals with rat. To be noted: Sub-acute repeat dose toxicity, sprague dawley, Oral, Gavage/Intubation, dose end: 28 day, group: systemic.
Series [5] relates to rat. The settings on record: Subchronic oral toxicity in rodents, fischer, Gavage/Intubation, dose end: 13 week, group: systemic.
In series [6] the test system is rat. To be noted: Carcinogenicity, fischer, Oral, Gavage/Intubation, dose end: 103 week, group: systemic.
In series [7] the test system is mouse. To be noted: Subchronic oral toxicity in rodents, b6c3f1, Gavage/Intubation, dose end: 13 week, group: systemic.
In series [8] the test system is rat. The settings on record: Combined chronic toxicity/carcinogenicity, fischer, Oral, Feed, dose end: 105 week, group: systemic.
Series [9] deals with mouse. To be noted: Carcinogenicity, other, Oral, Feed, dose end: 2 year, group: systemic.
The mark [10] stands for this setting: systemic / in life observation / clinical signs / arrhythmia.
The mark [11] stands for this setting: systemic / in life observation / clinical signs / arrhythmia + systemic / in life observation / clinical signs / convulsions.
Where [12] appears, read: systemic / clinical chemistry / cholesterol / cholesterol + systemic / clinical chemistry / sorbitol dehydrogenase / sorbitol dehydrogenase….
The mark [13] stands for this setting: systemic / organ weight / liver / absolute.
Where [14] appears, read: systemic / clinical chemistry / alkaline phosphatase (alp/alk) / alkaline phosphatase (alp/alk) + systemic / clinical chemistry / gamma ….
Setting [15] is: systemic / organ weight / spleen / absolute + systemic / organ weight / spleen / relative to body weight.
Setting [16] is: systemic / in life observation / body weight / body weight.
Setting [17] is: systemic / in life observation / body weight / body weight + systemic / pathology microscopic / liver / neoplastic nodule + systemic / in ….
[18] abbreviates: systemic / in life observation / body weight / body weight + systemic / in life observation / mortality / mortality + systemic / organ ….
Where [19] appears, read: systemic / organ weight / heart / absolute + systemic / organ weight / heart / relative to body weight.
Where [20] appears, read: systemic / in life observation / body weight / body weight + systemic / organ weight / kidney / relative to body weight + systemic / ….
Where [21] appears, read: systemic / clinical chemistry / alkaline phosphatase (alp/alk) / alkaline phosphatase (alp/alk) + systemic / clinical chemistry / chloride….
Setting [22] is: systemic / clinical chemistry / chloride / chloride + systemic / clinical chemistry / potassium / potassium + systemic / clinical chemistry….

In the case of `Cc1nc(C)nc(N2C[C@@H](C)N(c3ccnc([C@@H](C)O)n3)[C@@H](C)C2)n1`, the LEL was determined as 1 mg/kg/day in [1] (setting [10]), 6 mg/kg/day in [2], 1 mg/kg/day in series [3] and 2 mg/kg/day in series [4] (setting [13]). The NEL in series [1] (setting [10]) is less than 1 mg/kg/day; in series [2], less than 6 mg/kg/day; in series [3] it was less than 1 mg/kg/day; in [4] (setting [13]), less than 2 mg/kg/day. In addition, the LOAEL (as a rule, the lowest tested level that showed an adverse finding) in [1] (setting [11]) is greater than 6 mg/kg/day; in series [2], greater than 6 mg/kg/day; in [3], greater than 10 mg/kg/day; in series [4] (setting [12]), greater than 20 mg/kg/day. In addition, the no-observed-adverse-effect level (NOAEL) (commonly the highest dose or exposure tested at which no adverse effect was seen) was no less than 6 mg/kg/day in series [1] (setting [11]), no less than 6 mg/kg/day in series [2], no less than 10 mg/kg/day in [3] and no less than 20 mg/kg/day in series [4] (setting [12]).

With `Clc1ccccc1` [Chlorobenzene], the figures for the lowest-observed-adverse-effect level (LOAEL) in series [5] (setting [14]), in series [6] (setting [17]) and in series [7] (setting [18]) were greater than 750 mg/kg/day, greater than 120 mg/kg/day and greater than 750 mg/kg/day, respectively. In addition, the NOAEL in series [5] (setting [14]) was no less than 750 mg/kg/day; in series [6] (setting [17]), no less than 120 mg/kg/day; in series [7] (setting [18]), no less than 750 mg/kg/day. Moreover, the LEL in [5] (setting [15]), in series [6] (setting [16]) and in series [7] (setting [19]) was 60 mg/kg/day throughout. The NEL in [5] (setting [15]), in [6] (setting [16]) and in [7] (setting [19]) was less than 60 mg/kg/day throughout.

Take `c1ccc(-c2ccccc2)cc1` [Biphenyl]: in series [8] (setting [20]), the LOAEL is greater than 225 mg/kg/day, the NEL came to 25 mg/kg/day and the NOAEL is no less than 225 mg/kg/day. In [8] (systemic / organ weight / kidney / relative to body weight), the LEL was determined as 75 mg/kg/day. In [9] (setting [21]), the LOAEL was greater than 1050 mg/kg/day and the NOAEL was no less than 1050 mg/kg/day. In series [9] (setting [22]), the LEL worked out at 97 mg/kg/day and the NEL was less than 97 mg/kg/day.
